{"source": "patent US20100324017A1", "about": "“ACYLGUANIDINE DERIVATIVE” (priority 2007, published 2010)", "key": {"[1]": {"test_system": "PCP-induced prepulse inhibition (PPI) disorder", "assay": "Disorder of PCP-induced prepulse inhibition (PPI) in a rat", "type": "in vivo", "conditions": "oral, PCP 1 mg/kg s.c., % PPI", "description": "An Improvement Effect for a Disorder of PCP-Induced Prepulse Inhibition (PPI) in a Rat\nA startle amplitude occurs in humans to which an sound stimulus has been given, but in healthy human, this startle amplitude is inhibited by the giving of a weak sound stimulus that precedes the sound stimulus. For a patient with schizophrenia, the inhibitory function similarly declined. It is known that when a rat is administered with PCP (phencyclidine), there is a symptom similar to the negative symptom of schizophrenia in humans. Using this model, the improvement effect of the compound (I) for the information processing disorder included in cognitive impairment of schizophrenia was evaluated.\nSpecies: Male Wistar rat/number of the animals (number of animals per group): 12 animals per group\nStartle amplitude measuring device for small animals: an SR-LAB ABS system (manufactured by San Diego Instruments)\nAn animal holder, to which a Plexiglas-made cylinder for animal storage having a diameter of 8.2 cm was attached, was positioned in the upper part of a Plexiglas-made frame in a measurement box. In the measurement box, a sound-insulating treatment and ventilation (FAN) were carried out. Sound was administered by a speaker attached to the 24 cm upper part of the cylinder. The movement of the animals in the cylinder was detected by a transducer attached in the lower part of the frame and recorded by a microcomputer via an interface.\nThe experiment was initiated after the animals were put into the chamber for measurement and had spent 10 minutes adapting to the measurement environment. Basically, at 35 minutes after the compound to be tested was orally administered, 1 mg/kg of PCP was subcutaneously administered (1 ml/kg). Five minutes later, the rats were put into a chamber for measurement, allowed to adapt for 10 minutes, and the measurement was then initiated. A white noise of 65 dB (for all frequencies, a disordered noise having a constant energy per unit band) used as a background noise was always played through the break periods and the sessions. The three types of trials as shown below were carried out in a random order 10 times for each type with 30 times in total. Each trial was carried out at a pseudo-random interval of 20 to 60 seconds with an average of 40 seconds. A pulse was defined as a white noise of 120 dB, 20 msec, and a prepulse was defined as a white noise of 70, 80 dB, 20 msec.\nThe startle amplitude of the animal was measured for 100 msec from the initiation of the pulse, and the maximum value was taken as a “maximum startle amplitude (Vmax))”. The “maximum startle amplitude” for the ten times for each of the three types of trials were averaged, and taken as a “startle amplitude (simply referred to as SA)” under the stimulation condition.\nThe % prepulse inhibition (% PPI) was calculated in the following equation in the PP80 & P trial of 3) above.\n% Prepulse inhibition (% PPI)=(Startle amplitude at P-alone trial (SA)−Startle amplitude (SA) at a PP80 & P trial)/Startle amplitude at P alone trial×100\nThe measured value was expressed as an average value (mean±SE). First, the startle amplitudes (SA) were statistically analyzed. […] For the measured data of % PPI, the normal group and the control group (the group administered with PCP) were compared by a Student t-test, and for the control group and the group administered with the compound to be tested were compared using a Dunnett evaluation. […] The effect of the compound to be tested was assessed with % PPI."}, "[2]": {"test_system": "MK-801-induced overactivity", "assay": "MK-801-induced overactivity in mice, kinetic momentum by infrared sensor", "type": "in vivo", "conditions": "mouse, oral, dose 0.01 mg/kg; MK-801 0.3 mg/kg i.p.; total 60 minutes, P<0.05", "description": "Evaluation of Various Drugs Relative to a Drug for Increasing the Kinetic Momentum of Mice (Methane Phetamine, MK-801) (Method for Measuring a Kinetic Momentum by Discharge of an Infrared Ray)\nThe effect of improving the positive symptoms and the negative symptoms of schizophrenia by the compound (I) was evaluated by measuring the kinetic momentum that had been […] with administration of the compound in a model causing the symptoms by methane phetamine (which is hereinafter simply referred to as MAP) and MK-801.\nSpecies: Male ICR mouse/number of animals (number of animals per group): 8 to 12 animals per group\nThe animal was left in a laboratory for 1 hour or longer to be acclimated to the environment, and the animal was taken from the feeding cage, orally administered with a compound to be tested, and then returned to the feeding cage. After 30 minutes, it was put into a cage for measurement, and the kinetic momentum of just the compound to be tested was measured. Further, after 30 minutes, the animal was taken out, and intraperitoneally administered with a drug for increasing kinetic momentum (MAP; 1 mg/kg or MK-801; 0.3 mg/kg, all dissolved in physiological saline), and its kinetic momentum was measured for a certain time (60 minutes) using a device for measuring the kinetic momentum by means of an infrared ray sensor (CompACT AMS, Muromachi Kikai Co., Ltd.). Also, the test was carried out under non-fasting.\nThe 60 minutes of measurements was classified into three groups: a first half 30 minutes, a second half 30 minutes, and a total 60 minutes. For a normal mouse (a mouse administered with physiological saline) and a mouse administered with the drug for increasing kinetic momentum, a Student's T test was used for evaluation in each interval. For the group administered with the compound to be tested, a solvent (vehicle) group and a Dunnett's T test were carried out and evaluated. For the evaluation, in case where there was a significant (P<0.05) difference for the total 60 minutes, it was considered to be effective."}}}
{"smiles": "CC(C)n1c2cc(C(=O)N=C(N)N)ccc2c2c(CO)cccc21", "note": "[Example 65]", "values": [{"measurement": "improvement of the disorder of PCP prepulse inhibition (PPI)", "setting": "[1]; dose 0.1 mg/kg", "value": "significantly improved"}, {"measurement": "improvement of the disorder of PCP prepulse inhibition (PPI)", "setting": "[1]; dose 0.3 mg/kg", "value": "significantly improved"}, {"measurement": "inhibition of MK-801-induced overactivity", "setting": "[2]", "value": "significantly inhibited"}]}
{"smiles": "NC(N)=NC(=O)c1ccc2c3ccccc3n(C3CCOCC3)c2c1", "note": "[Example 25]", "values": [{"measurement": "improvement of the disorder of PCP prepulse inhibition (PPI)", "setting": "[1]; dose 0.03 mg/kg", "value": "significantly improved"}, {"measurement": "improvement of the disorder of PCP prepulse inhibition (PPI)", "setting": "[1]; dose 0.1 mg/kg", "value": "significantly improved"}, {"measurement": "inhibition of MK-801-induced overactivity", "setting": "[2]", "value": "significantly inhibited"}]}
